The subject of data set [1] is human SMAD7 mRNA. As to the kind of experiment: Antisense inhibition of human SMAD7 mRNA expression in Hep3B cells by 3-10-3 cEt gapmers, 10,000 nM, electroporation (Example 2). The conditions noted are these: approximately 24 hours. In kind it is cell-based. A digest of the protocol: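 SMAD7 mRNA was measured by real-time PCR (RTS5062) with RiboGreen total-RNA normalization, about 24 h after 10,000 nM gapmer was delivered by electroporation into Hep3B cells at 20,000 per well. Gapmers were 16-mer 3-10-3 cEt, fully phosphorothioate; values are % inhibition versus untreated controls.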

Data set [2] concerns human SMAD7 mRNA. Description: Dose-dependent inhibition of human SMAD7 mRNA expression in Hep3B cells (Example 3, Study 1 and 2). The conditions noted are these: electroporation; for % inhibition of SMAD7 mRNA expression: approximately 16 hours; for IC50: Study 2 (740-20000 nM). The class given is cell-based. A digest of the protocol:
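Hep3B cells, 20,000 per well, electroporated with antisense oligonucleotide at 0.31, 1.25, 5.00 or 20.00 μM (first series) or 0.74, 2.22, 6.67 or 20.00 μM (second series). After ~16 h, SMAD7 mRNA measured by RT-qPCR (RTS5062), normalised to RIBOGREEN total RNA. Percent inhibition vs untreated cells; IC50 derived.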

Where [3] appears, read: Hep3B cells, electroporation with 10,000 nM antisense oligonucleotide, SMAD7 mRNA by RT-PCR (RTS5062), relative to untreated control cells.
[4] abbreviates: 740 nM, Study 2, relative to untreated control cells.

Consider ten substances from patent US10517889B2, “Modulators of SMAD7 expression” (Ionis Pharmaceuticals, Inc., priority 2017, dated 2019).

Strand notation (5' to 3'): a small letter for the sugar, then the base; units joined by * are phosphorothioate-linked, units joined directly phosphodiester-linked; [ ] holds rarer units or linkages, { } end groups; capitals alone tell only the bases. k = constrained ethyl (cEt); [5mC] = 5-methylcytosine; d = 2'-deoxy (DNA)

Take “830128 (antisense kA*k[5mC]*k[5mC]*dT*d[5mC]*d[5mC]*dG*dA*dG*dG*d[5mC]*dA*d[5mC]*k[5mC]*kA*k[5mC]) [compound 830128]”: the % Inhibition (commonly the drop in the measured response relative to a control, in per cent) with human SMAD7 mRNA [1] (setting [3]) amounted to 87%. Further, the “% inhibition of SMAD7 mRNA expression” value in the data set on human SMAD7 mRNA [2] (setting [4]) is recorded as 20%; with human SMAD7 mRNA [2] (2220 nM, Study 2), 55%; in the data set on human SMAD7 mRNA [2] (6670.0 nM, Study 2), 74%; with human SMAD7 mRNA [2] (20000.0 nM, Study 2), 85%. Also, it took 3 µM to reach half-maximal inhibition with human SMAD7 mRNA [2] (IC50).

As for “799168 (antisense kG*k[5mC]*kT*dA*dA*dG*dA*dA*d[5mC]*dA*dG*dT*dG*kT*k[5mC]*kG) [compound 799168]”, the “% inhibition of SMAD7 mRNA expression” value in the data set with human SMAD7 mRNA [1] (Hep3B cells, electroporation with 10,000 nM antisense oligonucleotide, primer probe set RTS5062, relative to untreated control cells) is given as 75%; in the data set with human SMAD7 mRNA [2] (setting [4]), 15%; in the data set with human SMAD7 mRNA [2] (2220 nM, Study 2) it was 13%; in the data set with human SMAD7 mRNA [2] (6670.0 nM, Study 2), 36%; in the data set with human SMAD7 mRNA [2] (20000.0 nM, Study 2), 54%. Also, the IC50 – broadly, the midpoint of a concentration-inhibition curve – in the data set with human SMAD7 mRNA [2] turned out to be 5 µM.

Consider “790476 (kT*kT*k[5mC]*dT*dT*dG*dA*dG*d[5mC]*dA*d[5mC]*d[5mC]*dG*kA*kG*kT; antisense) [compound 790476]”, for which the “% Inhibition” value with human SMAD7 mRNA [1] (setting [3]) was 67%. The “% inhibition of SMAD7 mRNA expression” value in the data set with human SMAD7 mRNA [2] (setting [4]) is on record as 8%; in the data set on human SMAD7 mRNA [2] (2220 nM, Study 2), 38%; with human SMAD7 mRNA [2] (6670.0 nM, Study 2) it was 63%; in the data set with human SMAD7 mRNA [2] (20000.0 nM, Study 2), 69%. In the data set with human SMAD7 mRNA [2], this substance gave a half-inhibitory concentration (IC50) of 5 µM.

Regarding “829956 (k[5mC]*k[5mC]*kT*dT*dG*dT*d[5mC]*dA*d[5mC]*d[5mC]*d[5mC]*dG*dT*k[5mC]*kT*kG; antisense) [compound 829956]”, the “% Inhibition” value with human SMAD7 mRNA [1] (SMAD7 mRNA, Hep3B cells, electroporation with 10,000 nM antisense oligonucleotide, primer probe set RTS5062, relative to untreated control cells) is given as 66%. Besides, the “% inhibition of SMAD7 mRNA expression” value was found to be 65% with human SMAD7 mRNA [2] (setting [4]); 82% in the data set with human SMAD7 mRNA [2] (2220 nM, Study 2); 89% in the data set with human SMAD7 mRNA [2] (6670.0 nM, Study 2); 95% with human SMAD7 mRNA [2] (20000.0 nM, Study 2). In the data set on human SMAD7 mRNA [2], half-maximal inhibition (IC50) required 1 µM.

“799980 (k[5mC]*k[5mC]*kA*dA*d[5mC]*dG*dG*dT*dT*dG*d[5mC]*d[5mC]*dT*k[5mC]*kA*kT; antisense) [compound 799980]”: the “% Inhibition” value in the data set on human SMAD7 mRNA [1] (setting [3]) is listed as 78%. In addition, the “% inhibition of SMAD7 mRNA expression” value in the data set on human SMAD7 mRNA [2] (setting [4]) stood at 22%; in the data set on human SMAD7 mRNA [2] (2220 nM, Study 2), 22%; in the data set with human SMAD7 mRNA [2] (6670.0 nM, Study 2) it was 51%; in the data set with human SMAD7 mRNA [2] (20000.0 nM, Study 2), 61%. This substance showed an IC50 in the data set with human SMAD7 mRNA [2] of 13 µM.

On to “830137 (antisense kA*kT*kG*dA*dA*dA*dG*dT*dA*d[5mC]*dA*dA*dT*k[5mC]*kT*k[5mC]) [compound 830137]”, for which the “% Inhibition” value in the data set with human SMAD7 mRNA [1] (setting [3]) is recorded as 68%. Moreover, the “% inhibition of SMAD7 mRNA expression” value in the data set on human SMAD7 mRNA [2] (setting [4]) amounted to 19%; with human SMAD7 mRNA [2] (2220 nM, Study 2) it was 46%; in the data set with human SMAD7 mRNA [2] (6670.0 nM, Study 2), 63%; in the data set with human SMAD7 mRNA [2] (20000.0 nM, Study 2), 84%. Besides, in the data set with human SMAD7 mRNA [2], inhibition was half-maximal at 3 µM (IC50).

Consider “799674 (antisense kG*kA*kT*d[5mC]*dA*d[5mC]*dA*dA*dT*dT*d[5mC]*d[5mC]*dA*kA*kG*k[5mC]) [compound 799674]”, for which the “% inhibition of SMAD7 mRNA expression” value with human SMAD7 mRNA [1] (Hep3B cells, electroporation, 10,000 nM antisense oligonucleotide, RTS5062, relative to untreated control cells) is on record as 48%; in the data set on human SMAD7 mRNA [2] (setting [4]), 16%; with human SMAD7 mRNA [2] (2220 nM, Study 2), 35%; in the data set on human SMAD7 mRNA [2] (6670.0 nM, Study 2) it was 64%; in the data set on human SMAD7 mRNA [2] (20000.0 nM, Study 2) it was 91%. Besides, in the data set with human SMAD7 mRNA [2], half-maximal inhibition (IC50) was put at 14 µM.

As for “799709 (antisense kT*k[5mC]*kA*dA*dA*d[5mC]*dT*dT*dG*dT*dG*dG*dT*kA*kA*kA) [compound 799709]”, in the data set with human SMAD7 mRNA [1] (Hep3B cells, electroporation with 10,000 nM antisense oligonucleotide, RTS5062, percent inhibition of SMAD7 mRNA relative to untreated control cells), the “% Inhibition” value is given as 60%. Besides, the “% inhibition of SMAD7 mRNA expression” value with human SMAD7 mRNA [2] (setting [4]) came out at 0%; in the data set with human SMAD7 mRNA [2] (2220 nM, Study 2) it was 27%; in the data set with human SMAD7 mRNA [2] (6670.0 nM, Study 2) it was 36%; with human SMAD7 mRNA [2] (20000.0 nM, Study 2) it was 62%. Besides, the IC50 in the data set on human SMAD7 mRNA [2] came out at 7 µM.

Regarding “799858 (kG*kT*kA*dA*dT*dT*dT*dA*dG*d[5mC]*dA*dA*dT*kT*k[5mC]*k[5mC]; antisense) [compound 799858]”, the “% Inhibition” value in the data set with human SMAD7 mRNA [1] (Hep3B cells, 10,000 nM antisense oligonucleotide, electroporation, RT-PCR primer probe set RTS5062, relative to untreated control cells) is 64%. For the same substance, the “% inhibition of SMAD7 mRNA expression” value in the data set on human SMAD7 mRNA [2] (setting [4]) came out at 18%; in the data set on human SMAD7 mRNA [2] (2220 nM, Study 2), 43%; in the data set on human SMAD7 mRNA [2] (6670.0 nM, Study 2) it was 48%; with human SMAD7 mRNA [2] (20000.0 nM, Study 2) it was 71%. The substance further came in with an IC50 in the data set on human SMAD7 mRNA [2] of 2 µM.

With “830051 (kT*kA*kG*dT*dT*dT*d[5mC]*d[5mC]*dG*dA*dT*dT*dG*kG*k[5mC]*kA; antisense) [compound 830051]”, the “% Inhibition” value with human SMAD7 mRNA [1] (setting [3]) worked out at 84%. Moreover, the “% inhibition of SMAD7 mRNA expression” value in the data set on human SMAD7 mRNA [2] (setting [4]) was 0%; with human SMAD7 mRNA [2] (2220 nM, Study 2) it was 18%; with human SMAD7 mRNA [2] (6670.0 nM, Study 2), 42%; in the data set with human SMAD7 mRNA [2] (20000.0 nM, Study 2), 67%. For the same substance, in the data set with human SMAD7 mRNA [2], the concentration for half-maximal inhibition (IC50) is 2 µM.
